Data set [1] is described as follows: Solubility and gelling of salicylic acid in Poloxamer 188 solution. Format: physicochemical. Particulars: 0.50 gr. in 12.5 gr. of 20% Poloxamer 188. The source says: In both vials, 1 & 2, there are 12.5 gr. of 20% Poloxamer 188/purified water stock solution (2.5 gr. Poloxamer 188+10 gr. purified water).
The conditions of data set [2]: USP 29, cited from earlier work.
Data set [3] is described as follows: Microscope observation for crystals of active agent. In kind it is physicochemical. The conditions noted are these: Poloxamer 407 at 15% concentration in the formulation. An excerpt: Poloxamer 407 functions as co-solubilizer ingredient of sodium diclofenac.
Data set [4] is described as follows: Solubility of 3% sodium diclofenac in Poloxamer 407 in water. In kind it is physicochemical. Particulars: 3% in 5, 7 and 10 percent of Poloxamer in water, heated to 75° C. and cooled. As for the experimental part:
All 3 concentrations were heated to 75° C. to dissolution and cooled.

Where two headings read alike, the source gives them in different places.

With `O=C(O)c1ccccc1O` [Salicylic acid], the “state of Poloxamer 188 solution with doubled salicylic acid concentration” value in data set [1] is given as “viscous gel with no fluidity”. Further, the solubility in water is listed as approximately 0.2% in data set [2] (20° C.) and 1 gr. in 460 gr in data set [2].

On to `O=C(O)Cc1ccccc1Nc1c(Cl)cccc1Cl` [sodium diclofenac], for which, in data set [3], the “crystals under the microscope” value was “crystals were not observed”. Moreover, the “crystals after 24 h” value in data set [4] was “crystals were visually observed”.

The values above are taken from US8709385B2, “Poloxamer foamable pharmaceutical compositions with active agents and/or therapeutic cells and uses” (Foamix Ltd., priority 2008, dated 2014).
